Experimental data reported in US20080045506A1 (GLAXO GROUP LIMITED, priority 2004, published 2008).
Where a name gives a salt, the structure may show the parent alone.

Target: T1, histamine H3 receptor (Homo sapiens, UniProt Q9Y5N1)
T1 construct: expressed in transfected cells; host or cells: CHO K1 cells (pSwitch/pGene GeneSwitch system, mifepristone-induced), clone 3H3; membranes
Test: Histamine H3 functional antagonist assay (method B)
Format: biochemical
Conditions: [35S]-GTPγS SPA, membrane prepared from cultured H3 cells, histamine at EC80, averages of a number of experiments, read-out: functional pKi (fpKi), antagonism (converted)
From the text: A membrane preparation containing histamine H3 receptors may be prepared in accordance with the following procedures:
(i) Generation of Histamine H3 Cell Line
DNA encoding the human histamine H3 gene (Huvar, A. et al. (1999) Mol. Pharmacol. 55(6), 1101-1107) was cloned into a holding vector, pcDNA3.1 TOPO (InVitrogen) and its cDNA was isolated from this vector by restriction digestion of plasmid DNA with the enzymes BamH1 and Not-1 and ligated into the inducible expression vector pGene (InVitrogen) digested with the same enzymes. The GeneSwitch™ system (a system where in transgene expression is switched off in the absence of an inducer and switched on in the presence of an inducer) was performed as described in U.S. Pat. Nos. 5,364,791; 5,874,534; and 5,935,934. Ligated DNA was transformed into competent DH5α E. coli host bacterial cells and plated onto Luria Broth (LB) agar containing Zeocin™ (an antibiotic which allows the selection of cells expressing the sh ble gene which is present on pGene and pSwitch) at 50 μg ml^−1. Colonies containing the re-ligated plasmid were identified by restriction analysis. DNA for transfection into mammalian cells was prepared from 250 ml cultures of the host bacterium containing the pGeneH3 plasmid and isolated using a DNA preparation kit (Qiagen Midi-Prep) as per manufacturers guidelines (Qiagen).
CHO K1 cells previously transfected with the pSwitch regulatory plasmid (InVitrogen) were seeded at 2×10e6 cells per T75 flask in Complete Medium, containing Hams F12 (GIBCOBRL, Life Technologies) medium supplemented with 10% v/v dialysed foetal bovine serum, L-glutamine, and hygromycin (100 μg ml^−1), 24 hours prior to use. Plasmid DNA was transfected into the cells using Lipofectamine plus according to the manufacturers guidelines (InVitrogen). 48 hours post transfection cells were placed into complete medium supplemented with 500 μg ml^−1 Zeocin™.
10-14 days post selection 10 nM Mifepristone (InVitrogen), was added to the culture medium to induce the expression of the receptor. 18 hours post induction cells were detached from the flask using ethylenediamine tetra-acetic acid (EDTA; 1:5000; InVitrogen), following several washes with phosphate buffered saline pH 7.4 and resuspended in Sorting Medium containing Minimum Essential Medium (MEM), without phenol red, and supplemented with Earles salts and 3% Foetal Clone II (Hyclone). Approximately 1×10e7 cells were examined for receptor expression by staining with a rabbit polyclonal antibody, 4a, raised against the N-terminal domain of the histamine H3 receptor, incubated on ice for 60 minutes, followed by two washes in sorting medium. Receptor bound antibody was detected by incubation of the cells for 60 minutes on ice with a goat anti rabbit antibody, conjugated with Alexa 488 fluorescence marker (Molecular Probes). Following two further washes with Sorting Medium, cells were filtered through a 50 μm Filcon™ (BD Biosciences) and then analysed on a FACS Vantage SE Flow Cytometer fitted with an Automatic Cell Deposition Unit. Control cells were non-induced cells treated in a similar manner. Positively stained cells were sorted as single cells into 96-well plates, containing Complete Medium containing 500 μg ml^−1 Zeocin™ and allowed to expand before reanalysis for receptor expression via antibody and ligand binding studies. One clone, 3H3, was selected for membrane preparation.
(ii) Membrane Preparation from Cultured Cells
All steps of the protocol are carried out at 4° C. and with pre-cooled reagents. The cell pellet is resuspended in 10 volumes of homogenisation buffer (50 mM N-2-hydroxyethylpiperazine-N′-2-ethanesulfonic acid (HEPES), 1 mM ethylenediamine tetra-acetic acid (EDTA), pH 7.4 with KOH, supplemented with 10e-6M leupeptin (acetyl-leucyl-leucyl-arginal; Sigma L2884), 25 μg/ml bacitracin (Sigma B0125), 1 mM phenylmethylsulfonyl fluoride (PMSF) and 2×10e-6M pepstain A (Sigma)). […]

T1 sequence (Q9Y5N1 whole entry): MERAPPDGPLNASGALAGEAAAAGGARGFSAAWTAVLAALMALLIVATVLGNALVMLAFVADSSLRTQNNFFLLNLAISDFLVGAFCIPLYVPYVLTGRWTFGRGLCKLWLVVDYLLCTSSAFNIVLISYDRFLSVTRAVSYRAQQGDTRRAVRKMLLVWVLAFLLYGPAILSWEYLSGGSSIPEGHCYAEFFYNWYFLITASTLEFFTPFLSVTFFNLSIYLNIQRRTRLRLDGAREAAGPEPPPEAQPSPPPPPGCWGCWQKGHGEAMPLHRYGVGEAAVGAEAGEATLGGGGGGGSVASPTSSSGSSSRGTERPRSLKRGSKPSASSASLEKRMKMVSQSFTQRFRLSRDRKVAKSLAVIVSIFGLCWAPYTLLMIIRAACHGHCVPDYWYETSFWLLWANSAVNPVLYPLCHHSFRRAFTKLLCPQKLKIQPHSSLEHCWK

Ki [nM]	Compound
≤ 0.316	CCc1noc(-c2ccc(N3CC[C@H](C(=O)N4CCCN(C(C)C)CC4)C3)cc2)n1 [Example E48, 1-({(3S)-1-[4-(3-Ethyl-1,2,4-oxadiazol-5-yl)phenyl]-3-pyrrolidinyl}carbonyl)-4-(1-methylethyl)hexahydro-1H-1,4-diazepine hydrochloride]
≤ 0.316	Cc1noc(-c2ccc(N3CC[C@H](C(=O)N4CCN(C5CCC5)CC4)C3)cc2F)n1 [Example E52, 1-Cyclobutyl-4-({(3S)-1-[3-fluoro-4-(3-methyl-1,2,4-oxadiazol-5-yl)phenyl]-3-pyrrolidinyl}carbonyl)piperazine hydrochloride]
≤ 0.316	Cc1noc(-c2ccc(N3CC[C@H](C(=O)N4CCCN(C(C)C)CC4)C3)cc2)n1 [Example E28, 1-(1-Methylethyl)-4-({(3S)-1-[4-(3-methyl-1,2,4-oxadiazol-5-yl)phenyl]-3-pyrrolidinyl}carbonyl)hexahydro-1H-1,4-diazepine]
< 10	Cc1ccc2cc(N3CC[C@@H](C(=O)N4CCCN(C5CCC5)CC4)C3)ccc2n1 (single isomer, unassigned) [Example E19A, hydrochloride]
≤ 0.316	CC(C)N1CCN(C(=O)[C@H]2CCN(c3ccc(-n4ccnc4)cc3)C2)CC1 [Example E43, 1-({(3S)-1-[4-(1H-imidazol-1-yl)phenyl]-3-pyrrolidinyl}carbonyl)-4-(1-methylethyl)piperazine]
≤ 0.316	O=C([C@H]1CCN(c2ccc(C(F)(F)F)nc2)C1)N1CCN(C2CCC2)CC1 [Example E12, 1-Cyclobutyl-4-({(3S)-1-[6-(trifluoromethyl)-3-pyridinyl]-3-pyrrolidinyl}carbonyl)piperazine]
< 10	CC(=O)c1ccc(N2CC[C@@H](C(=O)N3CCCN(C4CCC4)CC3)C2)cc1 (single isomer, unassigned) [Example E21A, hydrochloride]
≤ 0.316	Cc1noc(-c2ccc(N3CC[C@H](C(=O)N4CCCN(CC5CC5)CC4)C3)cc2)n1 [Example E11, 1-(Cyclopropylmethyl)-4-({(3S)-1-[4-(3-methyl-1,2,4-oxadiazol-5-yl)phenyl]-3-pyrrolidinyl}carbonyl)hexahydro-1H-1,4-diazepine]
≤ 0.316	Cc1noc(-c2ccc(N3CC[C@H](C(=O)N4CCN(C(C)C)CC4)C3)c(F)c2)n1 [Example E25, 1-({(3S)-1-[2-Fluoro-4-(3-methyl-1,2,4-oxadiazol-5-yl)phenyl]-3-pyrrolidinyl}carbonyl)-4-(1-methylethyl)piperazine]
≤ 0.316	CC(=O)c1ccc(N2CCC(C(=O)N3CCCN(C4CCC4)CC3)C2)cc1 (racemic) [Example E21, (R,S)-1-(4-{3-[(4-Cyclobutylhexahydro-1H-1,4-diazepin-1-yl)carbonyl]-1-pyrrolidinyl}phenyl)ethanone]
≤ 0.316	Cc1nnc(-c2ccc(N3CC[C@H](C(=O)N4CCCN(C(C)C)CC4)C3)cc2)o1 [Example E47, 1-(1-Methylethyl)-4-({(3S)-1-[4-(5-methyl-1,3,4-oxadiazol-2-yl)phenyl]-3-pyrrolidinyl}carbonyl)hexahydro-1H-1,4-diazepine hydrochloride]
≤ 0.316	CC(C)N1CCN(C(=O)[C@H]2CCN(c3ccc(-c4ccno4)cc3)C2)CC1 [Example E41, 1-({(3S)-1-[4-(5-isoxazolyl)phenyl]-3-pyrrolidinyl}carbonyl)-4-(1-methylethyl)piperazine]
≤ 0.316	CC(=O)c1ccc(N2CC[C@H](C(=O)N3CCCN(CC4CC4)CC3)C2)cc1 [Example E10, 1-[4-((3S)-3-{[4-(Cyclopropylmethyl)hexahydro-1H-1,4-diazepin-1-yl]carbonyl}-1-pyrrolidinyl)phenyl]ethanone]
≤ 0.316	Cc1noc(-c2ccc(N3CC[C@H](C(=O)N4CCN(C(C)C)[C@@H](C)C4)C3)cc2)n1 [Example E6, (2S)-2-Methyl-1-(1-methylethyl)-4-({(3S)-1-[4-(3-methyl-1,2,4-oxadiazol-5-yl)phenyl]-3-pyrrolidinyl}carbonyl)piperazine]
≤ 0.316	Cc1nc(-c2ccc(N3CC[C@H](C(=O)N4CCN(C(C)C)CC4)C3)cc2)no1 [Example E33, 1-(1-Methylethyl)-4-({(3S)-1-[4-(5-methyl-1,2,4-oxadiazol-3-yl)phenyl]-3-pyrrolidinyl}carbonyl)piperazine]
≤ 0.316	CC(C)N1CCN(C(=O)[C@H]2CCN(c3ccc(-c4nnc(-c5ccccc5)o4)cc3)C2)CC1 [Example E40, 1-(1-Methylethyl)-4-({(3S)-1-[4-(5-phenyl-1,3,4-oxadiazol-2-yl)phenyl]-3-pyrrolidinyl}carbonyl)piperazine]
≤ 0.316	Cc1noc(-c2ccc(N3CCC(C(=O)N4CCCN(C5CCC5)CC4)C3)c(F)c2)n1 (racemic) [Example E20, (R,S)-1-Cyclobutyl-4-({1-[2-fluoro-4-(3-methyl-1,2,4-oxadiazol-5-yl)phenyl]-3-pyrrolidinyl}carbonyl)hexahydro-1H-1,4-diazepine]
≤ 0.316	Cc1noc(-c2ccc(N3CCC(C(=O)N4CCCN(C5CCC5)CC4)C3)cc2)n1 (racemic) [Example E18, (R,S)-1-Cyclobutyl-4-({1-[4-(3-methyl-1,2,4-oxadiazol-5-yl)phenyl]-3-pyrrolidinyl}carbonyl)hexahydro-1H-1,4-diazepine]
≤ 0.316	Cc1ncc(-c2ccc(N3CC[C@H](C(=O)N4CCN(C(C)C)CC4)C3)cc2)o1 [Example E34, 1-(1-Methylethyl)-4-({(3S)-1-[4-(2-methyl-1,3-oxazol-5-yl)phenyl]-3-pyrrolidinyl}carbonyl)piperazine]
≤ 0.316	Cc1noc(-c2ccc(N3CC[C@H](C(=O)N4CCN(C(C)C)CC4)C3)cn2)n1 [Example E54, 1-(1-Methylethyl)-4-({(3S)-1-[6-(3-methyl-1,2,4-oxadiazol-5-yl)-3-pyridinyl]-3-pyrrolidinyl}carbonyl)piperazine hydrochloride]
≤ 0.316	CC(=O)c1ccc(N2CC[C@H](C(=O)N3CCCN(C4CCC4)CC3)C2)cc1 (single isomer, unassigned) [Example E21B, hydrochloride]
≤ 0.316	Cc1noc(-c2ccc(N3CC[C@H](C(=O)N4CCN(C(C)C)CC4)C3)cc2)n1 [Example E3, 1-(1-Methylethyl)-4-({(3S)-1-[4-(3-methyl-1,2,4-oxadiazol-5-yl)phenyl]-3-pyrrolidinyl}carbonyl)piperazine]
< 10	Cc1noc(-c2ccc(N3CC[C@@H](C(=O)N4CCCN(C5CCC5)CC4)C3)c(F)c2)n1 (single isomer, unassigned) [Example E20A, hydrochloride]
≤ 0.316	Cc1nc(-c2ccc(N3CC[C@H](C(=O)N4CCN(C(C)C)CC4)C3)cc2)co1 [Example E32A, 1-(1-Methylethyl)-4-({(3S)-1-[4-(2-methyl-1,3-oxazol-4-yl)phenyl]-3-pyrrolidinyl}carbonyl)piperazine]
≤ 0.316	Cc1noc(-c2ccc(N3CC[C@H](C(=O)N4CCCN(C(C)C)CC4)C3)cc2F)n1 [Example E29, 1-({(3S)-1-[3-Fluoro-4-(3-methyl-1,2,4-oxadiazol-5-yl)phenyl]-3-pyrrolidinyl}carbonyl)-4-(1-methylethyl)hexahydro-1H-1,4-diazepine hydrochloride]
≤ 0.316	Cc1ccc2cc(N3CC[C@H](C(=O)N4CCCN(C5CCC5)CC4)C3)ccc2n1 (single isomer, unassigned) [Example E19B, hydrochloride]

Compound	Ki [nM]
Cc1noc(-c2ccc(N3CC[C@H](C(=O)N4CCCN(CC5CC5)CC4)C3)cn2)n1 [Example E58, hydrochloride]	≤ 0.316
